The values below come from patent US20220323406A1, “METHODS AND COMPOSITIONS FOR DIFFERENTIATING STEM CELLS” (Massachusetts Institute of Technology, priority 2019, published 2022).

One assay relates to ENR+CD organoids. Briefly: Primary screen: ATP (CellTiter-Glo 3D, CTG) cell number/viability, 2.5-D 384-well ENR+CD organoids.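 On all read-outs here: compounds given at plating and again on day 3 over a 6-day differentiation from ENR+CV stem-cell-enriched precursors, ATP measured on day 6, plate median as control.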 The following applies: primary screen; for Dose.FC.CTG: FC vs plate median; for Z.CTG: standard z score. (Cellular ATP, detected with luciferase, serves as a proxy for viable cell number.)
For assay [1], the system named is ENR+CD organoids (ISC to Paneth cell differentiation). Briefly: Primary screen: CCh-stimulated lysozyme secretion LYZ.S, 2.5-D 384-well ENR+CD organoid differentiation. The class given is cell-based, mouse. The following applies: primary screen; for Dose.FC.LYZ.S: FC vs plate median. The source says:
(§1) High-throughput screening.

The test system is the same in assay [2]. Briefly: Primary screen: basal (non-stimulated) lysozyme secretion LYZ.NS, 2.5-D 384-well ENR+CD organoid differentiation. In kind it is cell-based, mouse. The following applies: primary screen; for Z.LYZ.NS: standard z score; for Dose.FC.LYZ.NS: FC vs plate median.
Source text: as §1

As to `CN(Cc1cnc2nc(N)nc(N)c2n1)c1ccc(C(=O)N[C@@H](CCC(=O)O)C(=O)O)cc1` [Methotrexate], the “Dose.FC.CTG (log2 fold change)” value in the assay with ENR+CD organoids (dose 0.08 uM) is on record as −0.615. Further, the Dose.FC.CTG in the assay on ENR+CD organoids (dose 0.40 uM) was −0.722 log2 fold change; with ENR+CD organoids (dose 2.00 uM), −0.701 log2 fold change; in the assay on ENR+CD organoids (dose 10.00 uM) it was −0.642 log2 fold change. In assay [1] (dose 0.08 uM), the “Dose.FC.LYZ.S (log2 fold change)” value was −0.159. The figures for the Dose.FC.LYZ.S in assay [1] (dose 0.40 uM), in assay [1] (dose 2.00 uM) and in assay [1] (dose 10.00 uM) were −0.129 log2 fold change, −0.177 log2 fold change and −0.156 log2 fold change, respectively. For the same molecule, the “Dose.FC.LYZ.NS (log2 fold change)” value in assay [2] (dose 0.08 uM) is given as −0.097. In addition, in assay [2] (dose 0.08 uM), the “Z.LYZ.NS (standard z score)” value is reported as −0.843. Besides, the Z.LYZ.NS in assay [2] (dose 0.40 uM) is −0.332; in assay [2] (dose 2.00 uM), −1.132; in assay [2] (dose 10.00 uM), −0.658. The Dose.FC.LYZ.NS in assay [2] (dose 0.40 uM) was −0.038 log2 fold change; in assay [2] (dose 2.00 uM) it was −0.130 log2 fold change; in assay [2] (dose 10.00 uM), −0.076 log2 fold change.
On to `Nc1nc(CC(=O)Nc2ccc(CCNC[C@H](O)c3ccccc3)cc2)cs1` [Mirabegron], for which the Dose.FC.CTG in the assay on ENR+CD organoids (dose 0.08 uM) is listed as 0.029 log2 fold change; in the assay with ENR+CD organoids (dose 0.40 uM), −0.335 log2 fold change; in the assay on ENR+CD organoids (dose 2.00 uM), 0.019 log2 fold change; in the assay with ENR+CD organoids (dose 10.00 uM), −0.051 log2 fold change. Also, the Dose.FC.LYZ.S is given as 0.148 log2 fold change in assay [1] (dose 0.08 uM), −0.016 log2 fold change in assay [1] (dose 0.40 uM), −0.049 log2 fold change in assay [1] (dose 2.00 uM) and −0.010 log2 fold change in assay [1] (dose 10.00 uM). Also, the Z.LYZ.NS in assay [2] (dose 0.08 uM) is 1.201; in assay [2] (dose 0.40 uM) it was −0.259; in assay [2] (dose 2.00 uM) it was −0.301; in assay [2] (dose 10.00 uM), 0.193. The Dose.FC.LYZ.NS was 0.138 log2 fold change in assay [2] (dose 0.08 uM), −0.030 log2 fold change in assay [2] (dose 0.40 uM), −0.035 log2 fold change in assay [2] (dose 2.00 uM) and 0.022 log2 fold change in assay [2] (dose 10.00 uM).
For `O=C(NCCN1CCOCC1)c1ccc(Cl)cc1` [Moclobemide (Ro 111163)], the Z.CTG is given as 0.348 in the assay on ENR+CD organoids (dose 0.08 uM), 0.252 in the assay with ENR+CD organoids (dose 0.40 uM), 0.276 in the assay on ENR+CD organoids (dose 2.00 uM) and 0.100 with ENR+CD organoids (dose 10.00 uM). The Dose.FC.CTG in the assay with ENR+CD organoids (dose 0.08 uM) is 0.146 log2 fold change; with ENR+CD organoids (dose 0.40 uM), 0.106 log2 fold change; with ENR+CD organoids (dose 2.00 uM), 0.116 log2 fold change; with ENR+CD organoids (dose 10.00 uM), 0.042 log2 fold change. Besides, the Dose.FC.LYZ.S in assay [1] (dose 0.08 uM) worked out at 0.147 log2 fold change; in assay [1] (dose 0.40 uM) it was 0.094 log2 fold change; in assay [1] (dose 2.00 uM), 0.012 log2 fold change; in assay [1] (dose 10.00 uM) it was 0.019 log2 fold change. Also, the Z.LYZ.NS is given as 0.654 in assay [2] (dose 0.08 uM), 1.055 in assay [2] (dose 0.40 uM), 0.011 in assay [2] (dose 2.00 uM) and −0.243 in assay [2] (dose 10.00 uM). Further, the Dose.FC.LYZ.NS in assay [2] (dose 0.08 uM) was 0.075 log2 fold change; in assay [2] (dose 0.40 uM), 0.121 log2 fold change; in assay [2] (dose 2.00 uM), 0.001 log2 fold change; in assay [2] (dose 10.00 uM) it was −0.028 log2 fold change.
For the molecule `Cc1ccccc1C(=O)Nc1ccc(C(=O)N2CCCC(N(C)C)c3ccccc32)cc1` (stereo not drawn) [Mozavaptan], the Dose.FC.CTG is recorded as 0.320 log2 fold change in the assay on ENR+CD organoids (dose 0.08 uM), 0.235 log2 fold change in the assay with ENR+CD organoids (dose 0.40 uM), 0.108 log2 fold change in the assay on ENR+CD organoids (dose 2.00 uM) and −0.336 log2 fold change in the assay on ENR+CD organoids (dose 10.00 uM). Also, the Dose.FC.LYZ.S is 0.086 log2 fold change in assay [1] (dose 0.08 uM), 0.165 log2 fold change in assay [1] (dose 0.40 uM), 0.106 log2 fold change in assay [1] (dose 2.00 uM) and −0.270 log2 fold change in assay [1] (dose 10.00 uM). The Z.LYZ.NS in assay [2] (dose 0.08 uM) was 0.584; in assay [2] (dose 0.40 uM) it was −0.233; in assay [2] (dose 2.00 uM), 0.294; in assay [2] (dose 10.00 uM), −1.752. The Dose.FC.LYZ.NS in assay [2] (dose 0.08 uM) is on record as 0.067 log2 fold change; in assay [2] (dose 0.40 uM), −0.027 log2 fold change; in assay [2] (dose 2.00 uM), 0.034 log2 fold change; in assay [2] (dose 10.00 uM) it was −0.201 log2 fold change.
In the case of `FC(F)(F)c1ccc(/C=C/c2nc(COc3ccc(CCCCn4ccnn4)cc3)co2)cc1` [Mubritinib (TAK 165)], the Z.CTG was −1.252 with ENR+CD organoids (dose 0.08 uM), −0.812 in the assay on ENR+CD organoids (dose 0.40 uM), −1.265 in the assay with ENR+CD organoids (dose 2.00 uM) and −1.240 with ENR+CD organoids (dose 10.00 uM). The Dose.FC.CTG in the assay on ENR+CD organoids (dose 0.08 uM) is −0.524 log2 fold change; in the assay with ENR+CD organoids (dose 0.40 uM), −0.340 log2 fold change; in the assay on ENR+CD organoids (dose 2.00 uM), −0.530 log2 fold change; in the assay with ENR+CD organoids (dose 10.00 uM) it was −0.519 log2 fold change. The Dose.FC.LYZ.S in assay [1] (dose 0.08 uM) is recorded as −0.119 log2 fold change; in assay [1] (dose 0.40 uM), −0.154 log2 fold change; in assay [1] (dose 2.00 uM), −0.299 log2 fold change; in assay [1] (dose 10.00 uM), −0.294 log2 fold change. Further, the Z.LYZ.NS in assay [2] (dose 0.08 uM) was −0.500; in assay [2] (dose 0.40 uM) it was −1.687; in assay [2] (dose 2.00 uM), −1.950; in assay [2] (dose 10.00 uM) it was −2.092. Moreover, the Dose.FC.LYZ.NS in assay [2] (dose 0.08 uM) is given as −0.057 log2 fold change; in assay [2] (dose 0.40 uM) it was −0.194 log2 fold change; in assay [2] (dose 2.00 uM), −0.224 log2 fold change; in assay [2] (dose 10.00 uM), −0.240 log2 fold change.
On to `CCCCCCCCCCCCCCCCn1cc[n+](Cc2ccccc2)c1C.[I-]` [NH125], for which the Z.CTG was −0.829 in the assay with ENR+CD organoids (dose 0.08 uM), −1.213 with ENR+CD organoids (dose 0.40 uM), −2.641 in the assay with ENR+CD organoids (dose 2.00 uM) and −4.268 with ENR+CD organoids (dose 10.00 uM). In addition, the Dose.FC.CTG with ENR+CD organoids (dose 0.08 uM) is on record as −0.347 log2 fold change; in the assay on ENR+CD organoids (dose 0.40 uM), −0.508 log2 fold change; in the assay with ENR+CD organoids (dose 2.00 uM) it was −1.106 log2 fold change; with ENR+CD organoids (dose 10.00 uM) it was −1.787 log2 fold change. Further, the Dose.FC.LYZ.S is recorded as −0.114 log2 fold change in assay [1] (dose 0.08 uM), −0.237 log2 fold change in assay [1] (dose 0.40 uM), −0.358 log2 fold change in assay [1] (dose 2.00 uM) and −0.374 log2 fold change in assay [1] (dose 10.00 uM). Also, the Z.LYZ.NS in assay [2] (dose 0.08 uM) is −0.301; in assay [2] (dose 0.40 uM) it was −1.634; in assay [2] (dose 2.00 uM), −1.904; in assay [2] (dose 10.00 uM) it was −2.293. For the same molecule, the Dose.FC.LYZ.NS was −0.035 log2 fold change in assay [2] (dose 0.08 uM), −0.188 log2 fold change in assay [2] (dose 0.40 uM), −0.219 log2 fold change in assay [2] (dose 2.00 uM) and −0.263 log2 fold change in assay [2] (dose 10.00 uM).
